Results on six compounds are retold here after patent publication CN101016265A, “一种新型hiv-1逆转录酶抑制剂的制备及其用途” (Capital Medical University, priority 2007, dated 2007).

SMILES strings stand for the structures.

This experiment has as its target T1, HIV-1 reverse transcriptase (HIV-1逆转录酶) (Human immunodeficiency virus type 1 group M subtype B, UniProt P03366).
T1 construct: HIV-1逆转录酶HIV-1 RT为基因工程重组酶
Briefly: HIV-1 RT activity assay (oligo(dT)15-coated 96-well plate, poly(A) template, biotin-11-dUTP / SA-ALP / PNPP, 405 nm). The note with it: relative to nevirapine (NVP); range stated for the six compounds together. The format is biochemical.
Turning to `O=c1[nH]c(=O)n(COCc2ccccc2)c(Cc2ccccc2)c1I` [化合物5, 1-苄氧甲基-5-碘-6-苄基尿嘧啶], the “activity higher than that of nevirapine (NVP)” value (from here on “activity higher than that”) is on record as 3.6-627 fold.

With `CCOCn1c(Cc2ccccc2)c(N(C)C)c(=O)[nH]c1=O` [化合物10, 1-乙氧甲基-5-N,N-二甲基氨基-6-苄基尿嘧啶], the “activity higher than that” value was 3.6-627 fold.

As to `O=c1[nH]c(=O)n(COCc2ccccc2)c(Cc2ccccc2)c1Br` [化合物6, 1-苄氧甲基-5-溴-6-苄基尿嘧啶], the “activity higher than that” value is listed as 3.6-627 fold.

As to `CCOCn1c(Cc2ccccc2)c(I)c(=O)[nH]c1=O` [化合物8, 1-乙氧甲基-5-碘-6-苄基尿嘧啶], the “activity higher than that” value is reported as 3.6-627 fold.

With `CCOCn1c(Cc2ccccc2)c(Br)c(=O)[nH]c1=O` [化合物9, 1-乙氧甲基-5-溴-6-苄基尿嘧啶], the “activity higher than that” value was 3.6-627 fold.

In the case of `CN(C)c1c(Cc2ccccc2)n(COCc2ccccc2)c(=O)[nH]c1=O` [化合物7, 1-苄氧甲基-5-N,N-二甲基氨基-6-苄基尿嘧啶], the “activity higher than that” value is recorded as 3.6-627 fold.
